# Legend:
# [1] = tested on: A549 cells; experiment: Cisplatin treatment of A549 cells with or without ME2 knockdown, trypan blue count; assay type: cell-based, human; conditions: 20 μM cisplatin, 72 h
# Method: ME2 knockdown and control cells were plated in 6-well plates, and 24 h later, the cell were treated with 20 μM cisplatin. After 72 h, cells were stained with trypan blue and live cells were counted. […] Approximately 5×10^6 ME2 deficient cells from ME2 specific shRNA or control pLKO cells were subcutaneously implanted into female athymic nude mice as described in Materials and Methods. Tumor size was measured and calculated. C: Depletion of ME2 inhibits mucin-1 and vimentin expression and increase differentiation marker E-cadherin and ZO-1 expression in vivo.
# [2] = tested on: A549 xenograft tumors; experiment: Cisplatin treatment of xenograft tumors from wild type and ME2 knockdown A549 cells; assay type: in vivo, athymic nude mice
# Method: ME2 knockdown and control cells were plated in 6-well plates, and 24 h later, the cell were treated with 20 μM cisplatin. After 72 h, cells were stained with trypan blue and live cells were counted. […] Approximately 5×10^6 ME2 deficient cells from ME2 specific shRNA or control pLKO cells were subcutaneously implanted into female athymic nude mice as described in Materials and Methods. Tumor size was measured and calculated. C: Depletion of ME2 inhibits mucin-1 and vimentin expression and increase differentiation marker E-cadherin and ZO-1 expression in vivo. Animal experiments were performed under federal guidelines and approved by the Institutional Animal Care and Use Committee (IACUC) of the Beth Israel Deaconess Medical Center (Approval number 0342007). A549 xenografts in nude mice were generated by following the description of […] et al., in Biochem. Pharmacol. 72: 671-680 (2006). Briefly, approximately 10^7 ME2 deficient or control A549 cells resuspended in 200 μl of a serum-free culture medium/Matrigel mixture (1:1) were subcutaneously injected into the right and left flanks of male nude/nu/nu athymic mice, respectively. Tumor-bearing mice were sacrificed after 6-8 weeks and tumor masses were measured or imaged before excision. […]
# [3] = tested on: K562 cell; conditions: supplementation; Ren et al., PLoS One 5 (2010); cited from earlier work
SMILES,sensitivity of A549 cells to cisplatin treatment with ME2 deficiency [1],later growth of ME2 knockdown tumors (resumed at about 350 mm^3) ([2]; ME2 knockdown A549 xenografts),E-cadherin and mucin-1 expression in vivo ([2]; combination of ME2 depletion and cisplatin),K562 cell differentiation [3]
N.N.[Cl][Pt][Cl] [cisplatin],increased the sensitivity,prevent this later tumor growth,affected,
O=C([O-])CC(O)C(=O)[O-].[Na+].[Na+] (stereo not shown) [sodium malate],,,,failed to induce
